Assay results taken from patent US20070225318A1, “Pyrazole Compounds Useful In The Treatment Of Inflammation” (BIOLIPOX AB, priority 2004, published 2007).
Read-outs that look alike come from different tables or passages of the source.

Target: T1, purified human 15-lipoxygenase (Homo sapiens, UniProt P16050)
T1 sequence (P16050 1-662): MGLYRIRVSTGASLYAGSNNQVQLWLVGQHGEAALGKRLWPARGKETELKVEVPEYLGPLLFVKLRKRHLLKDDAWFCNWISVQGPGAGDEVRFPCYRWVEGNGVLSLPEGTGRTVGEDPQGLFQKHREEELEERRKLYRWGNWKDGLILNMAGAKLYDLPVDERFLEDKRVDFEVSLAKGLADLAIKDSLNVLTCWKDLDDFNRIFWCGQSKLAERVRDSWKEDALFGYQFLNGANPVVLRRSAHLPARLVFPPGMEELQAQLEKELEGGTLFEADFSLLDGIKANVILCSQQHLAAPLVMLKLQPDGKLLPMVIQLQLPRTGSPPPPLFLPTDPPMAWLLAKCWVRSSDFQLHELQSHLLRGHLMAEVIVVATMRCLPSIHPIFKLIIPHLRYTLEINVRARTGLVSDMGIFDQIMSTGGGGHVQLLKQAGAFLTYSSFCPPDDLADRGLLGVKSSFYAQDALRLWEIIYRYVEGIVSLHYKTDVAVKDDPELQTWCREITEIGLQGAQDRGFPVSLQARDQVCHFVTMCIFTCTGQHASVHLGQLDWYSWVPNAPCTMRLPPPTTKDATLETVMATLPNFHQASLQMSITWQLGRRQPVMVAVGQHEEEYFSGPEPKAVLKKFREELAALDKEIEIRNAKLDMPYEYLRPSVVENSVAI
Test: 15-lipoxygenase inhibition assay (arachidonic acid oxidation, HPLC readout)
Format: biochemical
Experimental: The assay employed takes advantage of the ability of lipoxygenases to oxidize polyunsaturated fatty acids, containing a 1,4-cis-pentadiene configuration, to their corresponding hydroperoxy or hydroxyl derivatives. In this particular assay, the lipoxygenase was a purified human 15-lipoxygenase and the fatty acid was arachidonic acid. The assay is performed at room temperature (20-22° C.) and the following are added to each well in a 96-well microtiter plate:
a) 35 μL phosphate buffered saline (PBS) (pH 7.4);
b) inhibitor (i.e. compound) or vehicle (0.5 μl DMSO);
c) 10 μL of a 10× concentrated solution of 15-lipoxygenase in PBS. The plates are incubated for 5 minutes at room temperature;
The plate is then incubated for 10 minutes at room temperature;
e) the enzymatic reaction is terminated by the addition of 100 μl methanol; and
f) the amount of 15-hydroperoxy-eicosatetraenoic acid or 15-hydroxy-eicosatetraenoic acid is measured by reverse phase HPLC.

[1] = arachidonic acid substrate, room temperature, PBS pH 7.4, read-out: IC50

SMILES | IC50 [1] | IC50
O=C(Nc1ccc2ccccc2n1)c1cc[nH]n1 [Example 2, Pyrazole-3-carboxylic acid quinolin-2-ylamide] | – | 330 nM
O=C(Nc1cccc2cccnc12)c1cc[nH]n1 [Example 59, Pyrazole-3-carboxylic acid quinolin-8-ylamide] | 465 nM | –
O=C(Nc1ccnc2ccc(Br)cc12)c1cc[nH]n1 [Example 63, Pyrazole-3-carboxylic acid (6-bromoquinolin-4-yl)amide] | 682 nM | –

Now from value to compound, other results behind:

IC50 [1] | SMILES | IC50
420 nM | Cc1cc(C(=O)Nc2cccc3ncccc23)n[nH]1 [Example 7, 5-Methylpyrazole-3-carboxylic acid quinolin-5-ylamide] | –
211 nM | O=C(Nc1cccc2[nH]ccc12)c1cc(Cl)[nH]n1 [Example 48, 5-Chloropyrazole-3-carboxylic acid indol-4-ylamide] | –
76 nM | CCOC(=O)c1c(NC(=O)c2cc[nH]n2)sc2c1CCCC2 [Example 56, 2-[(Pyrazole-3-carbonyl)amino]-4,5,6,7-tetrahydrobenzo[b]thiophene-3-carboxylic acid ethyl ester] | –
390 nM | O=C(Nc1cccc2c1OC(F)(F)O2)c1cc[nH]n1 [Example 60, Pyrazole-3-carboxylic acid (2,3-(difluoromethylenedioxy)phenyl)amide] | –
